Data on three compounds can be found in patent publication US20170333459A1 (priority 2010, published 2017).

Data set [1] has as its system vaccinia virus. On the set-up: species or system human. The settings on record: in vivo.
For data set [2] the following is noted: human, in vivo, po.
The target of data set [3] is T1, human Organic Anion Transporter 1 (hOAT1) (Homo sapiens, UniProt Q4U2R8).
T1 sequence (Q4U2R8 1-563): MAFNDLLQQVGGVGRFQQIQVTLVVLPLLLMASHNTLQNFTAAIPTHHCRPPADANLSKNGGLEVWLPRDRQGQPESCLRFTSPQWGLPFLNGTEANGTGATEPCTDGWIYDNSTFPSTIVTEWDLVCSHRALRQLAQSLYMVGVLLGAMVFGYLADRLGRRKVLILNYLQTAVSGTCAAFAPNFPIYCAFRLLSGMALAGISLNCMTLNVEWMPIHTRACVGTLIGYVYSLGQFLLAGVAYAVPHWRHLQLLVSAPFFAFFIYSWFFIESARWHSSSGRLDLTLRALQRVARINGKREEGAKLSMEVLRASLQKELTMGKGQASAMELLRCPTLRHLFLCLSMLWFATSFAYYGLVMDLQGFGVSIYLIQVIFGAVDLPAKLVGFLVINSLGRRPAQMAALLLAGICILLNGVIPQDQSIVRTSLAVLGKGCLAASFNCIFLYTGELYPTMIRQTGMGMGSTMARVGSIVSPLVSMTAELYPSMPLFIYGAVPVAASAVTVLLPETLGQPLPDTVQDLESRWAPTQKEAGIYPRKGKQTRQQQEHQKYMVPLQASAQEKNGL

Data set [4] addresses T2, hOAT3 (Homo sapiens, UniProt Q8TCC7).
T2 sequence (Q8TCC7 1-542): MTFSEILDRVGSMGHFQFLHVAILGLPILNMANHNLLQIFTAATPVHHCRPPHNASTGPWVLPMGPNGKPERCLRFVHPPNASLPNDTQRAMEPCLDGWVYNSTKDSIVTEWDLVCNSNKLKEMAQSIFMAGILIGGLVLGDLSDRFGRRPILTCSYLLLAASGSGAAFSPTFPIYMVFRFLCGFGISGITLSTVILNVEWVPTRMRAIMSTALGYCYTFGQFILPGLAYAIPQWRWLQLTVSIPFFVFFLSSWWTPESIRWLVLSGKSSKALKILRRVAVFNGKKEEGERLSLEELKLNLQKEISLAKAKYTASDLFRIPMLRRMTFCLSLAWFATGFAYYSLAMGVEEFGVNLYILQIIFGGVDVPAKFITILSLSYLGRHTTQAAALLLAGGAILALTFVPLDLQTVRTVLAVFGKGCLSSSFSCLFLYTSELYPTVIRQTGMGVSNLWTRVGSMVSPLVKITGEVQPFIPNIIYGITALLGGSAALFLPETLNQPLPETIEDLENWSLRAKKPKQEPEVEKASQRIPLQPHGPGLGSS
Particulars: MDCK.

The subject of data set [5] is monkeypox virus. The settings on record: monkey, in vivo, iv, 20 mg/kg; cited from earlier work.
Data set [6] concerns the target T2, hOAT3. Also noted: host or cells: MDCK-II cells, transiently transfected. The settings on record: reported for hOAT3-mediated uptake; cited from earlier work.
In data set [7] the test system is rabbitpox virus. On the set-up: species or system rabbits. Particulars: rabbit, in vivo.
The conditions of data set [8]: human, in vivo, po. The source holds these as a separate data set.
Data set [9] has as its system variola virus. The settings on record: read-out: in vitro potency; cited from earlier work.

Where “and” joins values, the source holds several entries; their conditions need not be identical. Equal entries are not always repeated.

Regarding `O=C(NN1C(=O)[C@@H]2[C@@H]3C=C[C@@H]([C@H]4C[C@@H]34)[C@@H]2C1=O)c1ccc(C(F)(F)F)cc1` [ST-246, reference compound], the “clinical outcome of progressive vaccinia” value in data set [1] was “improvement of progressive vaccinia”. Further, the ST-246 levels result in data set [2] is “lower”.

On to `Nc1ccn(C[C@@H](CO)OCP(=O)(O)O)c(=O)n1` [CDV, cidofovir], for which the “Uptake (Transporter)” value in data set [3] (5 min) was 116 ± 22 pmol/min/cm^2 and 117 ± 15 pmol/min/cm^2. Besides, in data set [3] (MDCK), the “net uptake in hOAT1 expressing cells” value was “enhanced” and the “uptake in the presence of OAT inhibitor probenecid” value is on record as “decreased”. For the same compound, the “net uptake in hOAT3 expressing cells” value in data set [4] is on record as “not enhanced”. Moreover, the survivors in data set [5] was 7/8. The “lower uptake efficiency (Vmax/Km)” value in data set [6] is > 100 fold.

With `CCCCCCCCCCCCCCCCOCCCOP(=O)(O)CO[C@H](CO)Cn1ccc(N)nc1=O` [CMX001, 1-O-hexadecyloxypropyl cidofovir], in data set [7], the effective single dose was determined as 20 mg/kg and the preventing mortality entry is recorded as “effective in preventing mortality”. Also, the survivors in data set [7] (20 mg/kg) is reported as 11/12. Besides, the “clinical outcome of progressive vaccinia” value in data set [1] is “improvement of progressive vaccinia”. Besides, in data set [3] (MDCK), the “effect of 20% serum on uptake” value is given as “substantially reduced”, the “net uptake in hOAT1 expressing cells” value is “not enhanced” and the “substrate for hOAT1” value was “not a substrate”. The “Net Transporter Uptake” value in [3] (human, MDCK) is −0.3 ± 5.4 pmol/min/cm^2. In data set [4], the “net uptake in hOAT3 expressing cells” value is listed as “not enhanced” and the “substrate for hOAT3” value is “not a substrate”. Further, the nephrotoxicity result in [8] is reported as “no signs of nephrotoxicity have been observed”. In addition, the EC50 in data set [9] was 100 nM.
